Experimental data reported in US20060069080A1, “Combinations of substituted azetidinones and CB1 antagonists” (priority 2004, published 2006).

What was measured:
[1] = test system: hypercholesterolemic/diet induced obese C57BL/6 mouse; test: Treatment of hypercholesterolemic/diet induced obese C57BL/6 mice with ezetimibe; type: in vivo; settings: 5 mg/kg/day
Description: The hypercholesterolemic/diet induced obese C57BL/6 mouse can be used to evaluate the vivo efficacy of a cholesterol absorption inhibitor, ezetimibe, in combination with a selective CB1 receptor antagonist, rimonabant. Feeding mice a “western” diet containing 45 kcal % of fat and 0.15% cholesterol diet for 21 days increased plasma cholesterol to 150 mg/dL and increased hepatic cholesteryl esters 2-fold.
Nonfasted plasma cholesterol levels were determined by a modification of the cholesterol oxidase method, in which the reagents were available in a kit form from Wako Pure Chemicals Industries, Ltd. (Osaka, Japan). Samples of liver (0.2 g) were lipid extracted. Lipid extracts were dried under nitrogen into HPLC sample vials, resuspended in hexane and injected onto a Zorbax Sil (4.6×25 cm) silica column. Chromatography was performed using an isocratic mobile phase containing 98.8% hexane and 1.2% isopropanol at a flow rate of 2 mL/min. Lipids were detected by absorbance at 206 nm and quantitated by computer integration (System Gold, Beckman) of elution profiles. Elution time for cholesteryl ester was 1.45 min. Cholesteryl ester content of liver-derived samples was derived from a standard curve constructed using known amounts of cholesteryl oleate. Cholesteryl oleate was used as the standard since this is the major cholesteryl ester species present in the liver and this specific cholesteryl ester has an extinction coefficient that approximates that of a weighted average for all the cholesteryl esters present in the liver.

[2] = test system: obese, hyperinsulinemic hamsters; settings: ezetimibe treatment; cited from earlier work
Diet induced obese mice = test: Treatment of diet induced obese C57BL/6 mice with rimonabant; type: in vivo, mouse; settings: 1, 3 and 10 mg/kg p.o. once a day for 5 consecutive days; western diet 16 weeks; at all doses
Description: Plasma leptin and insulin were determined using commercially available ELISA kits (Crystal Chem and ALPCO for leptin and insulin, respectively). Whole body adiposity was determined using an NMR based method (EchoMRI, Echo Medical Inc.).

diet-induced obese mice = settings: mouse, in vivo; cited from earlier work
patients = settings: cited from earlier work

Compound	accumulation of hepatic cholesteryl esters ([1]; western diet 21 days)	hepatic cholesteryl esters ([1]; western diet 21 days, control 12.8 mg/g) [mg/g]	plasma cholesterol levels ([1]; western diet (45 kcal % fat, 0.15% cholesterol) for 21 days, diet control 150 mg/dL) [mg/dL]	body weights [2]	food consumption [2]	plasma leptin levels [2]	adiposity (Diet induced obese mice)	body weight (Diet induced obese mice)	cumulative food intake (Diet induced obese mice)	plasma insulin levels (Diet induced obese mice)	plasma leptin levels (Diet induced obese mice)	plasma cholesterol levels (diet-induced obese mice)	serum high density lipoprotein (HDL) levels (patients)	triglyceride levels (patients)
O=C1[C@H](CC[C@H](O)c2ccc(F)cc2)[C@@H](c2ccc(O)cc2)N1c1ccc(F)cc1 [Ezetimibe, ezetimibe]	completely inhibited	4.6	102	does not appear to cause any changes	does not appear to cause any changes	does not appear to cause any changes	–	–	–	–	–	–	–	–
Cc1c(C(=O)NN2CCCCC2)nn(-c2ccc(Cl)cc2Cl)c1-c1ccc(Cl)cc1 [rimonabant]	–	–	–	–	–	–	significant dose dependent reduction	significant dose dependent reduction	significant dose dependent reduction	significant dose dependent reduction	significant dose dependent reduction	does not appear to reduce	increase	decrease
